“Also recorded” adds a separate entry of the source. Like-named read-outs stand apart in the source and are kept apart here.
Molecular target: T1, TbSir2rp1 (Trypanosoma brucei brucei, UniProt Q57V41)
T1 construct: The TbSir2rp1 gene was cloned into the pET24(+) expression plasmid (Novagen); His tag; made in house; host or cells: Escherichia coli BL21-Codon Plus (DE3)-RIL
T1 sequence (Q57V41 1-351): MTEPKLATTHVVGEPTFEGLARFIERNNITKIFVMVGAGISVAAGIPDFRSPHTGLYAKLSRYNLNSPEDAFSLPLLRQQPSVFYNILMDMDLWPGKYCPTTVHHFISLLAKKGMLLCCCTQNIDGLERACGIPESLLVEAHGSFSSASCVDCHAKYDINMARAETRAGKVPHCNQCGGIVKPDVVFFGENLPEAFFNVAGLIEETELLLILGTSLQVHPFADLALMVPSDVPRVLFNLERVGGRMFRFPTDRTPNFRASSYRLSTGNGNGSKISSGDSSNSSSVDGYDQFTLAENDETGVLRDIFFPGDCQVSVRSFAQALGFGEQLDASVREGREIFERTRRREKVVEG
Assay: biochemical
Settings: for ligand efficiency (LE): LE = –R·T·ln(IC50)/HAC, from TbSir2rp1 IC50; for IC50: enzyme 1 μM, NAD+ 100 μM, acetylated peptide 50 μM, 37 °C, 2 h; for Hill coefficient (nH): concentration–response curve against TbSir2rp1
Method: The acetylated peptide corresponds to the sequence Abz-Gly-Pro-acetylLys-SerGln–EDDnp, where Abz is ortho-aminobenzoic acid and EDDnp is N-[2,4-dinitrophenyl]ethylenediamine.
To halt the deacetylation reaction, 4 mM nicotinamide was used. For each pair of wells in the 96-well plate, 0.2 mg/mL of trypsin was added to only one well to hydrolyze the acetylated peptide, enabling fluorescence emission. Fluorescence was measured immediately at 420 nm with excitation at 320 nm using a SpectraMax M2 microplate reader (Molecular Devices).
Deacetylation activity was determined by the difference between the well where trypsin was added and the well without trypsin. All assays were performed in triplicate, and activity values were reported as means ± standard deviations with outliers identified and excluded from the calculations. Statistical analyses were conducted using Prism 7 software (GraphPad).
The screening of the 90 fragments was performed at a single concentration of 500 μM in triplicate. The enzyme was used at 1 μM, and the substrates NAD^+ and acetylated peptide were used at 100 and 50 μM, respectively. Incubation was carried out at 37.0 °C for 2 h. Each fragment was added to a pair of wells, with trypsin being added to only one well, as previously described for inhibitory activity calculation. […] Ligand efficiency (LE) was calculated as LE = –R·T·ln(IC50)/HAC using IC50 values instead of KD for comparison. […] The inhibition mechanism was characterized using Lineweaver–Burk plots under five concentrations of each substrate and three concentrations of the fragment. IC50 values were determined with at least seven different concentrations, and Lineweaver–Burk analysis used six concentrations.

[1] = read-out: % Inhibition TbSir2rp1, Table S2, complete fragment library, single concentration of 500 μM
[2] = read-out: % Inhibition TbSir2rp1 at 500 μM, Table 1, fragment 500 μM, triplicate, mean ± SD

Row | SMILES | inhibition at 500 µM [1] | also measured
1 | C(=N\c1nncs1)/c1ccc(Sc2ccccc2)cc1 | 38 ± 1.7% | 
2 | C(=N\c1nnc(Cc2ccccc2)o1)/c1ccccc1 | 41 ± 12% | 
3 | CS(=O)(=O)Nc1cccc(-c2nc3ccccc3[nH]2)c1 | -0.8 ± 4.1% | 
4 | Nc1cc2nc(-c3cccc(C(F)(F)F)c3)cn2cn1 | 19 ± 28% | 
5 | O=C1C(O)=C(Nc2ccc(F)cc2)C(=O)c2ccccc21 | 71 ± 23% | 
6 | Cc1cccc(C)c1NC1=C(O)C(=O)c2ccccc2C1=O | 39 ± 4.6% | 
7 | CC(C)NCC1CCc2cc(CO)c([N+](=O)[O-])cc2N1 (stereo not drawn) |  | inhibition at 500 µM (read-out: % Inhibition TbSir2rp1): 24 ± 7.9%
8 | Cc1cn([C@H]2C[C@H](N=[N+]=[N-])[C@@H](CO)O2)c(=O)[nH]c1=O | 8.2 ± 1.4% | 
9 | CN1C(=O)CN=C(c2ccccc2)c2cc(Cl)ccc21 | 37 ± 2.2% | 
10 | NC(=O)c1ncn([C@@H]2O[C@H](CO)[C@@H](O)[C@H]2O)n1 | -11 ± 11% | 
11 | c1ccc(C2CN3CCSC3=N2)cc1 (stereo not drawn) [C12=NC(C3=CC=CC=C3)CN1CCS2] | 10 ± 1.4% | 
12 | C/C(=N\NC(N)=O)c1ccncc1 [C/C(C1=CC=NC=C1)=N\NC(N)=O] | 31 ± 13% | 
13 | Cc1oc2ncccc2c1C(=O)O [CC1=C(C(O)=O)C2=C(O1)N=CC=C2] | 19 ± 17% | 
14 | CCOC(=O)c1c(C)oc2nc(Cl)ccc12 [CC1=C(C(OCC)=O)C2=C(O1)N=C(Cl)C=C2] | -29 ± 18% | 
15 | CCOC(=O)c1c(C)oc2ncc(Br)cc12 [CC1=C(C(OCC)=O)C2=C(O1)N=CC(Br)=C2] | -7.1 ± 9.1% | 
16 | CCOC(=O)c1c(C)oc2ncccc12 [CC1=C(C(OCC)=O)C2=C(O1)N=CC=C2] | -29 ± 12% | 
17 | CCOC(=O)c1c(C)oc2c1ccc[n+]2[O-] [CC1=C(C(OCC)=O)C2=C(O1)[N+]([O-])=CC=C2] | -2.9 ± 10% | 
18 | Cc1ccc(S(=O)(=O)n2ncc3ccccc32)cc1 [CC1=CC=C(S(N2N=CC3=C2C=CC=C3)(=O)=O)C=C1] | 4 ± 30% | 
19 | Cc1ccc(S(=O)(=O)n2cccn2)cc1 [CC1=CC=C(S(N2N=CC=C2)(=O)=O)C=C1] | 8.4 ± 20% | 
20 | Cc1ncc([N+](=O)[O-])n1CCO [CC1=NC=C([N+]([O-])=O)N1CCO] | 14 ± 3.1% | 
21 | CC(C)Cc1ccc(C(C)C(=O)O)cc1 (stereo not drawn) [CC(C1=CC=C(CC(C)C)C=C1)C(O)=O] | -2.1 ± 0.21% | 
22 | CC(C)(Oc1ccc(C2CC2(Cl)Cl)cc1)C(=O)O (stereo not drawn) [CC(C)(OC1=CC=C(C2C(Cl)(Cl)C2)C=C1)C(O)=O] | 4.9 ± 4.7% | 
23 | CCOc1ccc(NC(C)=O)cc1 [CC(NC1=CC=C(OCC)C=C1)=O] | -5.5 ± 1.5% | 

Row | SMILES | inhibition at 500 µM [1] | also measured
24 | CC(=O)Nc1ccccc1 [CC(NC1=CC=CC=C1)=O] | 7.7 ± 21% | 
25 | CCOC1NN=C(c2ccccc2)N1 (stereo not drawn) [CCOC1NC(C2=CC=CC=C2)=NN1] | -3.3 ± 1.9% | 
26 | COc1cc(C)c(NC(C)=O)cn1 [COC1=NC=C(NC(C)=O)C(C)=C1] | 1.6 ± 13% | 
27 | COc1cc2cn[nH]c2cn1 [COC1=NC=C(NN=C2)C2=C1] | 56 ± 15% | 
28 | CS(=O)(=O)Nc1cccc(-c2ccccc2)c1 [CS(NC1=CC=CC(C2=CC=CC=C2)=C1)(=O)=O] | 35 ± 3.7% | 
29 | CN[C@@H](C)[C@H](O)c1ccccc1 [C[C@H](NC)[C@@H](C1=CC=CC=C1)O] | 23 ± 6.4% | 
30 | O=S(=O)(c1ccc(Cl)cc1)c1ccc(Cl)cc1 [ClC1=CC=C(S(C2=CC=C(Cl)C=C2)(=O)=O)C=C1] | 44 ± 12% | 
31 | CC(=O)n1ncc2cc(Cl)ncc21 [ClC1=NC=C(N(C(C)=O)N=C2)C2=C1] | 19 ± 9.9% | 
32 | Cc1cc(Cl)ncc1N [ClC1=NC=C(N)C(C)=C1] | 8.8 ± 19% | 
33 | Nc1ccc(C(=O)c2ccccc2)cc1 [Fragment 1.2] |  | ligand efficiency (LE): 0.37; IC50 (TbSir2rp1, read-out: IC50): 80.9 µM; Hill coefficient (nH): 0.72; inhibition mechanism (Lineweaver–Burk plot) (for both substrates, acetylated peptide and NAD+): competitive
34 | Sc1nc2ccccc2s1 [Fragment 1.3] |  | IC50 (IC50, TbSir2rp1): 125 µM; ligand efficiency (LE): 0.54; Hill coefficient (nH): 1.04
35 | CCOc1ccc2nc(N)sc2c1 [Fragment 1.4] |  | inhibition of TbSir2rp1 (in words): did not inhibit; also recorded: No inhibition
36 | Nc1ccc(Nc2ccccc2)cc1 [Fragment 1.5] |  | IC50 (TbSir2rp1, read-out: IC50): > 500 µM
37 | CCc1[nH][nH]c(=O)c1-c1cccnc1O [Fragment 3] | 88 ± 14% | ligand efficiency (LE): 0.37; Hill coefficient (nH): 1.77; inhibition at 500 µM [2]: 88.3 ± 14.2%
38 | CN(C)c1ccc(/C=N/c2nnc(-c3ccccc3)o2)cc1 [Fragment 4] | 78 ± 2.3% | ligand efficiency (LE): 0.25; IC50 (TbSir2rp1, read-out: IC50): 94.4 µM; Hill coefficient (nH): 1.10; inhibition at 500 µM [2]: 78.4 ± 2.3%
39 | O=c1ccc2ccccc2[nH]1 [Fragment 6] | 60 ± 5.5% | ligand efficiency (LE): 0.41; Hill coefficient (nH): 1.19; inhibition at 500 µM [2]: 59.7 ± 5.5%
40 | Clc1cc2cn[nH]c2cn1 [Fragment 7] | 61 ± 9.1% | inhibition at 500 µM [2]: 60.6 ± 9.1%
41 | O=C1Cc2cnccc2CN1 [Fragment 8] | 55 ± 4.8% | inhibition at 500 µM [2]: 55.5 ± 4.8%
42 | Cc1ccc(S(=O)(=O)N(C)/N=C/c2cccs2)cc1 [Fragment 9] | 65 ± 1.7% | inhibition at 500 µM [2]: 64.8 ± 1.7%
43 | N=C(N)N/N=C/c1cccs1 [Fragment 10] | 56 ± 4.9% | inhibition at 500 µM [2]: 55.7 ± 4.9%
44 | O=C(/C=C/c1ccccc1Cl)c1ccc2c(c1)OCO2 [Fragment 12] | 102 ± 5.9% | inhibition at 500 µM [2]: 102 ± 5.9%
45 | O=C1C(O)=C(Nc2ccccc2)C(=O)c2ccccc21 [Fragment 13] | 95 ± 4.9% | inhibition at 500 µM [2]: 95.3 ± 4.9%
46 | C1CN2CCN1CC2 [N1(CC2)CCN2CC1] | 2.7 ± 2.6% | 

Row | SMILES | inhibition at 500 µM [1] | also measured
47 | NC(N)=NS(=O)(=O)c1ccc(N)cc1 [N/C(N)=N\S(=O)(C1=CC=C(N)C=C1)=O] | 1.8 ± 1.9% | 
48 | N/C(=N/c1ccccc1)Nc1ccccc1 [N/C(NC1=CC=CC=C1)=N/C2=CC=CC=C2] | 2.6 ± 1.1% | 
49 | Nc1ccc(S(=O)(=O)c2ccc(N)cc2)cc1 [NC1=CC=C(S(C2=CC=C(N)C=C2)(=O)=O)C=C1] | 48 ± 4.1% | 
50 | Nc1cccc([N+](=O)[O-])c1 [NC1=CC=CC([N+]([O-])=O)=C1] | 27 ± 0.91% | 
51 | Nc1nnc(-c2ccccc2)o1 [NC1=NN=C(O1)C2=CC=CC=C2] | 16 ± 0.61% | 
52 | NNC(=O)/C=C/c1ccccc1 [NNC(/C=C/C1=CC=CC=C1)=O] | 42 ± 8.5% | 
53 | NNS(=O)(=O)c1ccc(Cl)cc1 [NNS(=O)(C1=CC=C(Cl)C=C1)=O] | 37 ± 24% | 
54 | Cc1ccc(S(=O)(=O)NN)cc1 [NNS(C1=CC=C(C)C=C1)(=O)=O] | 53 ± 5.2% | 
55 | CC1(C)CCC2=C(O1)c1ccccc1C(=O)C2=O [O=C1C2=C(OC(C)(C)CC2)C3=CC=CC=C3C1=O] | 43 ± 5.2% | 
56 | O=C1NCCn2cccc21 [O=C1C2=CC=CN2CCN1] | -35 ± 5% | 
57 | O=C1CCSc2nc(-c3ccccc3)nn21 [O=C1CCSC2=NC(C3=CC=CC=C3)=NN21] | 3 ± 1.7% | 
58 | O=C1Nc2ccccc2C1=O [O=C1NC2=C(C=CC=C2)C1=O] | 49 ± 0.31% | 
59 | O=c1[nH]nc(-c2ccccc2)[nH]1 [O=C1NC(C2=CC=CC=C2)=NN1] | 0.91 ± 7.3% | 
60 | O=C1NC(=O)C(c2ccccc2)(c2ccccc2)N1 [O=C1NC(C(C2=CC=CC=C2)(C3=CC=CC=C3)N1)=O] | 52 ± 2.3% | 
61 | O=C(/C=C/c1ccc(Cl)cc1)c1cccs1 [O=C(/C=C/C1=CC=C(Cl)C=C1)C2=CC=CS2] | 32 ± 8.5% | 
62 | COC1=CC(=O)c2ccccc2C1=O [O=C(C1=C2C=CC=C1)C(OC)=CC2=O] | 44 ± 3.7% | 
63 | CC1(C)CCC2=C(O1)C(=O)c1ccccc1C2=O [O=C(C1=C2OC(C)(C)CC1)C3=CC=CC=C3C2=O] | 33 ± 14% | 
64 | NNC(=O)c1ccncc1 [O=C(C1=CC=NC=C1)NN] | -4.9 ± 2.4% | 
65 | CCn1cc(C(=O)O)c(=O)c2ccc(C)nc21 [O=C(C1=CN(CC)C2=C(C=CC(C)=N2)C1=O)O] | -6.5 ± 2.2% | 
66 | NC(=O)c1cnccn1 [O=C(C1=NC=CN=C1)N] | 22 ± 1.5% | 
67 | CC(=O)NCCN1C(=O)CNC1=O [O=C(CN1)N(CCNC(C)=O)C1=O] | 5.8 ± 3.4% | 
68 | Cn1cnc2c1c(=O)[nH]c(=O)n2C [O=C(N1)N(C)C2=C(N(C)C=N2)C1=O] | 17 ± 4.4% | 
69 | Cn1c(=O)c2[nH]cnc2n(C)c1=O [O=C(N1C)N(C)C2=C(NC=N2)C1=O] | -2.1 ± 3% | 

From paper PMC11799985 (ACS Omega, 2024)
